From ChEMBL document CHEMBL3393012, “Osteoprotective effect of geraniin against ovariectomy-induced bone loss in rats” (Bioorg Med Chem Lett, 2015)
The source made the active and inactive calls. No cut-off for these calls is given here.

Assays:
Assay type in all cases: functional, organism-based
Rattus norvegicus [1] = experiment: Antiosteoporotic effect in OVX-induced Wistar rat osteoporosis model assessed as increase in serum calcium level at 20 to 40 mg/kg/day, ig administered for 2 weeks by colorimetric method relative to control
Rattus norvegicus [2] = experiment: Antiosteoporotic effect in OVX-induced Wistar rat osteoporosis model assessed as increase in serum phosphorus level at 20 to 40 mg/kg/day, ig administered for 2 weeks by colorimetric method relative to control
Rattus norvegicus [3] = experiment: Antiosteoporotic effect in OVX-induced Wistar rat osteoporosis model assessed as decrease in serum ALP level at 20 to 40 mg/kg/day, ig administered for 2 weeks by colorimetric method relative to control
Rattus norvegicus [4] = experiment: Antiosteoporotic effect in OVX-induced Wistar rat osteoporosis model assessed as decrease in serum TRAP level at 20 to 40 mg/kg/day, ig administered for 2 weeks by colorimetric method relative to control
Rattus norvegicus [5] = experiment: Antiosteoporotic effect in OVX-induced Wistar rat osteoporosis model assessed as increase in serum estradiol level at 40 mg/kg/day, ig administered for 2 weeks by RIA relative to control
Rattus norvegicus [6] = experiment: Antiosteoporotic effect in OVX-induced Wistar rat osteoporosis model assessed as increase in serum calcitonin level at 40 mg/kg/day, ig administered for 2 weeks by RIA relative to control
Rattus norvegicus [7] = experiment: Antiosteoporotic effect in OVX-induced Wistar rat osteoporosis model assessed as decrease in serum CTX level at 20 to 40 mg/kg/day, ig administered for 2 weeks by ELISA relative to control
Rattus norvegicus [8] = experiment: Antiosteoporotic effect in OVX-induced Wistar rat osteoporosis model assessed as decrease in urinary DPD/Cr level at 20 to 40 mg/kg/day, ig administered for 2 weeks by ELISA relative to control; conditions: Urine
Rattus norvegicus [9] = experiment: Antiosteoporotic effect in OVX-induced Wistar rat osteoporosis model assessed as increase in femur wet weight at 40 mg/kg/day, ig administered for 2 weeks relative to control
Rattus norvegicus [10] = experiment: Antiosteoporotic effect in OVX-induced Wistar rat osteoporosis model assessed as increase in femur dry weight at 40 mg/kg/day, ig administered for 2 weeks relative to control
Rattus norvegicus [11] = experiment: Antiosteoporotic effect in OVX-induced Wistar rat osteoporosis model assessed as increase in femur ash weight at 40 mg/kg/day, ig administered for 2 weeks relative to control
Rattus norvegicus [12] = experiment: Antiosteoporotic effect in OVX-induced Wistar rat osteoporosis model assessed as increase in bone calcium content at 40 mg/kg/day, ig administered for 2 weeks by flame atomic absorption spectroscopy relative to control
Rattus norvegicus [13] = experiment: Antiosteoporotic effect in OVX-induced Wistar rat osteoporosis model assessed as increase in bone mineral density of left femur at 20 to 40 mg/kg/day, ig administered for 2 weeks by dual-energy X-ray absorptiometry relative to control
Rattus norvegicus [14] = experiment: Antiosteoporotic effect in OVX-induced Wistar rat osteoporosis model assessed as increase in bone mineral content of left femur at 20 to 40 mg/kg/day, ig administered for 2 weeks by dual-energy X-ray absorptiometry relative to control
Rattus norvegicus [15] = experiment: Antiosteoporotic effect in OVX-induced Wistar rat osteoporosis model assessed as increase in bone mineral density of third lumbar vertebra at 20 to 40 mg/kg/day, ig administered for 2 weeks by dual-energy X-ray absorptiometry relative to control
Rattus norvegicus [16] = experiment: Antiosteoporotic effect in OVX-induced Wistar rat osteoporosis model assessed as increase in bone mineral content of third lumbar vertebra at 20 to 40 mg/kg/day, ig administered for 2 weeks by dual-energy X-ray absorptiometry relative to control
Rattus norvegicus [17] = experiment: Antiosteoporotic effect in OVX-induced Wistar rat osteoporosis model assessed as increase in ultimate load of left femur at 20 to 40 mg/kg/day, ig administered for 2 weeks by […] relative to control
Rattus norvegicus [18] = experiment: Antiosteoporotic effect in OVX-induced Wistar rat osteoporosis model assessed as increase in ultimate load of third lumbar vertebra at 20 to 40 mg/kg/day, ig administered for 2 weeks by […] relative to control
Rattus norvegicus [19] = experiment: Antiosteoporotic effect in OVX-induced Wistar rat osteoporosis model assessed as increase in trabecular thickness in left femur at 20 to 40 mg/kg/day, ig administered for 2 weeks by histomorhological analysis relative to control
Rattus norvegicus [20] = experiment: Antiosteoporotic effect in OVX-induced Wistar rat osteoporosis model assessed as increase in trabecular number in left femur at 20 to 40 mg/kg/day, ig administered for 2 weeks by histomorhological analysis relative to control
Rattus norvegicus [21] = experiment: Antiosteoporotic effect in OVX-induced Wistar rat osteoporosis model assessed as decrease in trabecular separation in left femur at 20 to 40 mg/kg/day, ig administered for 2 weeks by histomorhological analysis relative to control
Rattus norvegicus [22] = experiment: Antiosteoporotic effect in OVX-induced Wistar rat osteoporosis model assessed as increase in trabecular thickness in third lumbar vertebra at 20 to 40 mg/kg/day, ig administered for 2 weeks by histomorhological analysis relative to control
Rattus norvegicus [23] = experiment: Antiosteoporotic effect in OVX-induced Wistar rat osteoporosis model assessed as increase in trabecular number in third lumbar vertebra at 20 to 40 mg/kg/day, ig administered for 2 weeks by histomorhological analysis relative to control
Rattus norvegicus [24] = experiment: Antiosteoporotic effect in OVX-induced Wistar rat osteoporosis model assessed as decrease in trabecular separation in third lumbar vertebra at 20 to 40 mg/kg/day, ig administered for 2 weeks by histomorhological analysis relative to control
Rattus norvegicus [25] = experiment: Antiosteoporotic effect in OVX-induced Wistar rat osteoporosis model assessed as increase in serum calcium level at 1 mg/kg/day, ig administered for 2 weeks by colorimetric method relative to control
Rattus norvegicus [26] = experiment: Antiosteoporotic effect in OVX-induced Wistar rat osteoporosis model assessed as decrease in serum ALP level at 1 mg/kg/day, ig administered for 2 weeks by colorimetric method relative to control
Rattus norvegicus [27] = experiment: Antiosteoporotic effect in OVX-induced Wistar rat osteoporosis model assessed as decrease in serum TRAP level at 1 mg/kg/day, ig administered for 2 weeks by colorimetric method relative to control
Rattus norvegicus [28] = experiment: Antiosteoporotic effect in OVX-induced Wistar rat osteoporosis model assessed as increase in serum estradiol level at 1 mg/kg/day, ig administered for 2 weeks by RIA relative to control
Rattus norvegicus [29] = experiment: Antiosteoporotic effect in OVX-induced Wistar rat osteoporosis model assessed as increase in serum calcitonin level at 1 mg/kg/day, ig administered for 2 weeks by RIA relative to control
Rattus norvegicus [30] = experiment: Antiosteoporotic effect in OVX-induced Wistar rat osteoporosis model assessed as decrease in serum CTX level at 1 mg/kg/day, ig administered for 2 weeks by ELISA relative to control
Rattus norvegicus [31] = experiment: Antiosteoporotic effect in OVX-induced Wistar rat osteoporosis model assessed as decrease in urinary DPD/Cr level at 1 mg/kg/day, ig administered for 2 weeks by ELISA relative to control; conditions: Urine
Rattus norvegicus [32] = experiment: Antiosteoporotic effect in OVX-induced Wistar rat osteoporosis model assessed as increase in femur wet weight at 1 mg/kg/day, ig administered for 2 weeks relative to control
Rattus norvegicus [33] = experiment: Antiosteoporotic effect in OVX-induced Wistar rat osteoporosis model assessed as increase in femur dry weight at 1 mg/kg/day, ig administered for 2 weeks relative to control
Rattus norvegicus [34] = experiment: Antiosteoporotic effect in OVX-induced Wistar rat osteoporosis model assessed as increase in femur ash weight at 1 mg/kg/day, ig administered for 2 weeks relative to control
Rattus norvegicus [35] = experiment: Antiosteoporotic effect in OVX-induced Wistar rat osteoporosis model assessed as increase in bone calcium content at 1 mg/kg/day, ig administered for 2 weeks by flame atomic absorption spectroscopy relative to control
Rattus norvegicus [36] = experiment: Antiosteoporotic effect in OVX-induced Wistar rat osteoporosis model assessed as increase in bone mineral density of left femur at 1 mg/kg/day, ig administered for 2 weeks by dual-energy X-ray absorptiometry relative to control
Rattus norvegicus [37] = experiment: Antiosteoporotic effect in OVX-induced Wistar rat osteoporosis model assessed as increase in bone mineral content of left femur at 1 mg/kg/day, ig administered for 2 weeks by dual-energy X-ray absorptiometry relative to control
Rattus norvegicus [38] = experiment: Antiosteoporotic effect in OVX-induced Wistar rat osteoporosis model assessed as increase in bone mineral density of third lumbar vertebra at 1 mg/kg/day, ig administered for 2 weeks by dual-energy X-ray absorptiometry relative to control
Rattus norvegicus [39] = experiment: Antiosteoporotic effect in OVX-induced Wistar rat osteoporosis model assessed as increase in bone mineral content of third lumbar vertebra at 1 mg/kg/day, ig administered for 2 weeks by dual-energy X-ray absorptiometry relative to control
Rattus norvegicus [40] = experiment: Antiosteoporotic effect in OVX-induced Wistar rat osteoporosis model assessed as increase in ultimate load of left femur at 1 mg/kg/day, ig administered for 2 weeks by […] relative to control
Rattus norvegicus [41] = experiment: Antiosteoporotic effect in OVX-induced Wistar rat osteoporosis model assessed as increase in ultimate load of third lumbar vertebra at 1 mg/kg/day, ig administered for 2 weeks by […] relative to control
Rattus norvegicus [42] = experiment: Antiosteoporotic effect in OVX-induced Wistar rat osteoporosis model assessed as increase in trabecular thickness in left femur at 1 mg/kg/day, ig administered for 2 weeks by histomorhological analysis relative to control
Rattus norvegicus [43] = experiment: Antiosteoporotic effect in OVX-induced Wistar rat osteoporosis model assessed as increase in trabecular number in left femur at 1 mg/kg/day, ig administered for 2 weeks by histomorhological analysis relative to control
Rattus norvegicus [44] = experiment: Antiosteoporotic effect in OVX-induced Wistar rat osteoporosis model assessed as decrease in trabecular separation in left femur at 1 mg/kg/day, ig administered for 2 weeks by histomorhological analysis relative to control

O=C1O[C@H]2[C@@H]3OC(=O)c4cc(O)c(O)c(O)c4-c4c(cc(O)c(O)c4O)C(=O)OC[C@H]2O[C@@H](OC(=O)c2cc(O)c(O)c(O)c2)[C@@H]3OC(=O)c2cc(O)c(O)c3c2[C@@H]2C1=CC(=O)[C@](O)(O3)C2(O)O
Activity (Rattus norvegicus [1]): Active | Activity (Rattus norvegicus [2]): inactive | Activity (Rattus norvegicus [3]): Active | Activity (Rattus norvegicus [4]): Active | Activity (Rattus norvegicus [5]): Active | Activity (Rattus norvegicus [6]): Active | Activity (Rattus norvegicus [7]): Active | Activity (Rattus norvegicus [8]): Active | Activity (Rattus norvegicus [9]): Active | Activity (Rattus norvegicus [10]): Active | Activity (Rattus norvegicus [11]): Active | Activity (Rattus norvegicus [12]): Active | Activity (Rattus norvegicus [13]): Active | Activity (Rattus norvegicus [14]): Active | Activity (Rattus norvegicus [15]): Active | Activity (Rattus norvegicus [16]): Active | Activity (Rattus norvegicus [17]): Active | Activity (Rattus norvegicus [18]): Active | Activity (Rattus norvegicus [19]): Active | Activity (Rattus norvegicus [20]): Active | Activity (Rattus norvegicus [21]): Active | Activity (Rattus norvegicus [22]): Active | Activity (Rattus norvegicus [23]): Active | Activity (Rattus norvegicus [24]): inactive

C#C[C@@]1(O)[C@H](O)C[C@H]2[C@@H]3CCc4cc(OC5CCCC5)ccc4[C@H]3CC[C@@]21C
Activity (Rattus norvegicus [25]): Active | Activity (Rattus norvegicus [26]): Active | Activity (Rattus norvegicus [27]): Active | Activity (Rattus norvegicus [28]): Active | Activity (Rattus norvegicus [29]): Active | Activity (Rattus norvegicus [30]): Active | Activity (Rattus norvegicus [31]): Active | Activity (Rattus norvegicus [32]): Active | Activity (Rattus norvegicus [33]): Active | Activity (Rattus norvegicus [34]): Active | Activity (Rattus norvegicus [35]): Active | Activity (Rattus norvegicus [36]): Active | Activity (Rattus norvegicus [37]): Active | Activity (Rattus norvegicus [38]): Active | Activity (Rattus norvegicus [39]): Active | Activity (Rattus norvegicus [40]): Active | Activity (Rattus norvegicus [41]): Active | Activity (Rattus norvegicus [42]): Active | Activity (Rattus norvegicus [43]): Active | Activity (Rattus norvegicus [44]): Active
